What all share (format): cell-based
Experiment [1] concerns Acinetobacter baumannii ATCC 19606 (non-MDR). The settings on record: Acinetobacter baumannii ATCC 19606 (non-MDR). In outline: (§1)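 CLSI broth microdilution in Mueller Hinton II broth with 0.002% polysorbate 80; 2-fold peptide dilutions from 32 mcg/mL top final concentration (SEQ ID NO:5 and 8 in DMSO, 2.5% final at first dilution). Incubated 35° C for 16 to 20 hrs; MIC = lowest concentration inhibiting visible growth.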

Experiment [2] relates to Enterococcus faecalis ATCC 29212 (VSE; QC). The settings on record: ATCC 29212. In outline:
as §1

Experiment [3] has as its system Enterococcus faecalis ATCC 700802 (V583 VRE). To be noted: ATCC 700802. An outline of the steps: as §1
For experiment [4], the system named is Enterococcus faecium ATCC 51559 (VRE). The settings on record: ATCC 51559. An outline of the steps:
as §1

For experiment [5], the system named is Escherichia coli ATCC 25922 (QC). The settings on record: ATCC 25922. An outline of the steps:
as §1

Experiment [6] has as its system Escherichia coli ATCC 35218 (ESBL). To be noted: ATCC 35218. An outline of the steps: as §1
The subject of experiment [7] is Escherichia coli ATCC BAA-2471 (NDM-1). The settings on record: ATCC BAA-2471. In outline:
as §1

Experiment [8] has as its system Klebsiella pneumoniae ATCC BAA-1705 (KPC). The settings on record: ATCC BAA-1705. An outline of the steps: as §1
Experiment [9] has as its system Pseudomonas aeruginosa ATCC 27853 (non-MDR; QC). To be noted: ATCC 27853. In outline: as §1
For experiment [10], the system named is Pseudomonas aeruginosa ATCC BAA-2109 (MDR). To be noted: ATCC BAA-2109. In outline: as §1
Experiment [11] concerns Staphylococcus aureus ATCC 29213 (MSSA; QC). The settings on record: ATCC 29213. An outline of the steps: as §1
In experiment [12] the test system is Staphylococcus aureus ATCC 43300 (MRSA). To be noted: ATCC 43300. An outline of the steps:
as §1

The test system of experiment [13] is Staphylococcus aureus NRS382 (USA100; HA-MRSA). To be noted: USA100. An outline of the steps:
as §1

The subject of experiment [14] is Streptococcus agalactiae ATCC 13813. In outline:
as §1

The test system of experiment [15] is Streptococcus pneumoniae ATCC 49619 (QC). To be noted: ATCC 49619. An outline of the steps: as §1
In experiment [16] the test system is Streptococcus pyogenes ATCC 49399. To be noted: ATCC 49399. An outline of the steps:
as §1

The test system of experiment [17] is Acinetobacter baumannii ATCC BAA-1797 (MDR). Kind of experiment: microbe, parasite or virus in culture. The settings on record: ATCC BAA-1797. An outline of the steps:
as §1

Ends that are not written are not given here.

In the case of “RRWVRRVRRVWRRVVRVVRRWVRR-NH2 (C-terminus assumed) [SEQ ID NO: 1]”, the MIC in experiment [1] turned out to be 2 µg/mL; in experiment [2], 8 µg/mL; in experiment [3], 4 µg/mL; in experiment [4] it was 2 µg/mL; in experiment [5], 4 µg/mL; in experiment [6], 8 µg/mL. For the same substance, the MIC stood at 2 µg/mL in experiment [7]; 8 µg/mL in experiment [8]; 8 µg/mL in [9]; 4 µg/mL in [10]; 8 µg/mL in [11]; 4 µg/mL in [12]. Also, the MIC stood at 4 µg/mL in experiment [13]; 8 µg/mL in experiment [14]; 16 µg/mL in experiment [15]; 8 µg/mL in experiment [16]; 4 µg/mL in experiment [17].

For the origin of these results see patent US20220249599A1, “TREATMENT OF IMPLANTS WITH ENGINEERED ANTIMICROBIAL AMPHIPHILIC PEPTIDES” (priority 2018, published 2022).
